Experimental findings from ChEMBL document CHEMBL5260859, “Discovery and structure-activity relationship study of 2-piperazinyl-benzothiazole derivatives as potent and selective PPARδ agonists” (Bioorg Med Chem, 2023) are described below.

Type in all cases: cell-based
The species entered for one assay is Homo sapiens. Nature of the assay: Selectivity ratio of EC50 for agonist activity at Gal4-fused human PPAR-alpha ligand binding domain expressed in CHO-K1 cells to EC50 for agonist activity at Gal4-fused human PPAR-delta ligand binding domain expressed in CHO-K1 cells.
In assay [1] the target is T1, Peroxisome proliferator-activated receptor delta (Homo sapiens, UniProt Q03181).
T1 sequence (Q03181 whole entry): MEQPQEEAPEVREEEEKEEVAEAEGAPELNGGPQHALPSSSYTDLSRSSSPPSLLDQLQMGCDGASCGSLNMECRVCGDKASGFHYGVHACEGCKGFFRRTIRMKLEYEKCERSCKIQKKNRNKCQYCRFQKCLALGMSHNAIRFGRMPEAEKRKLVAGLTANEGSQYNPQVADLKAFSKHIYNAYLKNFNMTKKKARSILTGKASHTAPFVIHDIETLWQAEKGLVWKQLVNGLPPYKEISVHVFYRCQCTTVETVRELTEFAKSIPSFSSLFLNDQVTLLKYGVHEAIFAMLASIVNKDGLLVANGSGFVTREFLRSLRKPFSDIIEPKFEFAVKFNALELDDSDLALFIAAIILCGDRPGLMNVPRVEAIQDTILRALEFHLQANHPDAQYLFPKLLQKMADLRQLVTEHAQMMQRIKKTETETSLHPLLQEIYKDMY
As to the kind of experiment: Agonist activity at Gal4-fused human PPAR-delta ligand binding domain expressed in CHO-K1 cells assessed as receptor transactivation incubated for 24 to 48 hrs by luciferase reporter gene assay.

The target in assay [2] is T2, Peroxisome proliferator-activated receptor delta (Mus musculus) (UniProt P35396).
T2 sequence (whole entry): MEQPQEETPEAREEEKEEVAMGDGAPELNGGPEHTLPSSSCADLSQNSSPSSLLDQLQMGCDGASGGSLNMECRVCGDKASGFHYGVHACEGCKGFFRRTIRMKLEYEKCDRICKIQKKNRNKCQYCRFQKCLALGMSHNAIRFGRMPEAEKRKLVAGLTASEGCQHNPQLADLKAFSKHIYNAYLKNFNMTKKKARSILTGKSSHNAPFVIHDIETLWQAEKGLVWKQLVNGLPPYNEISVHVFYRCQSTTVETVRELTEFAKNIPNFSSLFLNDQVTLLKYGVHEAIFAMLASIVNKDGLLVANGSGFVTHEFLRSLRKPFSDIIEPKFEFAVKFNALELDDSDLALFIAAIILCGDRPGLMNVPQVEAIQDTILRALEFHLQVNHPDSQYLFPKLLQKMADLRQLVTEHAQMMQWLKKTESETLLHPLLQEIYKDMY
As to the kind of experiment: Agonist activity at Gal4-fused mouse PPAR-delta ligand binding domain expressed in CHO-K1 cells assessed as receptor transactivation incubated for 24 to 48 hrs by luciferase reporter gene assay relative to control. The note with it: time lower 24.0 hrs, time upper […]. For orientation: In a reporter assay the amount or activity of a reporter protein is the signal.

The target of assay [3] is T3, Peroxisome proliferator-activated receptor alpha (Mus musculus, UniProt P23204).
T3 sequence (P23204 whole entry): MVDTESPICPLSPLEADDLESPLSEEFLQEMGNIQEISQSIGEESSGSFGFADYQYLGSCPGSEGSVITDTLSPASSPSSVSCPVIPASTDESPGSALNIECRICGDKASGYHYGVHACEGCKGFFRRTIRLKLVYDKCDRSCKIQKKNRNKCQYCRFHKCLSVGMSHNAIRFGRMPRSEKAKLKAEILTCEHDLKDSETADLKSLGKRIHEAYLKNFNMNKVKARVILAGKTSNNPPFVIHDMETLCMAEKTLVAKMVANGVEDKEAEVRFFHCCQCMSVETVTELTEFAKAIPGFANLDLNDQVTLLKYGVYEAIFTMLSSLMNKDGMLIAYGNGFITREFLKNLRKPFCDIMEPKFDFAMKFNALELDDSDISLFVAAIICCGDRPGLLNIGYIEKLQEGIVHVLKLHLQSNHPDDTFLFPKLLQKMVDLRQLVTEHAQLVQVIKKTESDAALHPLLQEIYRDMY
As to the kind of experiment: Agonist activity at Gal4-fused mouse PPAR-alpha ligand binding domain expressed in CHO-K1 cells assessed as receptor transactivation incubated for 24 to 48 hrs by luciferase reporter gene assay.

Assay [4] has as its target T4, Peroxisome proliferator-activated receptor alpha (Homo sapiens) (UniProt Q07869).
T4 sequence (whole entry): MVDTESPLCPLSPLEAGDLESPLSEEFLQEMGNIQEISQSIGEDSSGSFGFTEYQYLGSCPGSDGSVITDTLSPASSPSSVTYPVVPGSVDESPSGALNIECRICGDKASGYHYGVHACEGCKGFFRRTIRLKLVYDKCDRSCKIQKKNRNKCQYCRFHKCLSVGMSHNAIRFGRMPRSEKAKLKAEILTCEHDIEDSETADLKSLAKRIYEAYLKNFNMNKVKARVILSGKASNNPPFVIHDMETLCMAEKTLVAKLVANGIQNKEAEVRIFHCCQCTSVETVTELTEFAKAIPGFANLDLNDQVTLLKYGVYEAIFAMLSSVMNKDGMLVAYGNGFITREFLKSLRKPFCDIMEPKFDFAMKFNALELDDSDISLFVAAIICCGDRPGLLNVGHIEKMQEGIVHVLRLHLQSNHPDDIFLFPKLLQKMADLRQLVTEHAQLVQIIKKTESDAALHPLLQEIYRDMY
As to the kind of experiment: Agonist activity at Gal4-fused human PPAR-alpha ligand binding domain expressed in CHO-K1 cells assessed as receptor transactivation incubated for 24 to 48 hrs by luciferase reporter gene assay relative to control. The note with it: time lower 24.0 hrs, time upper […].

Assay [5] addresses T5, Peroxisome proliferator-activated receptor delta (Homo sapiens) (UniProt Q03181).
T5 sequence (whole entry): T1 sequence (Q03181 whole entry)
As to the kind of experiment: Agonist activity at Gal4-fused human PPAR-delta ligand binding domain expressed in CHO-K1 cells assessed as receptor transactivation incubated for 24 to 48 hrs by luciferase reporter gene assay relative to control. The conditions noted are these: time lower 24.0 hrs, time upper […].

The target of assay [6] is T6, Peroxisome proliferator-activated receptor gamma (Mus musculus, UniProt P37238).
T6 sequence (P37238 whole entry): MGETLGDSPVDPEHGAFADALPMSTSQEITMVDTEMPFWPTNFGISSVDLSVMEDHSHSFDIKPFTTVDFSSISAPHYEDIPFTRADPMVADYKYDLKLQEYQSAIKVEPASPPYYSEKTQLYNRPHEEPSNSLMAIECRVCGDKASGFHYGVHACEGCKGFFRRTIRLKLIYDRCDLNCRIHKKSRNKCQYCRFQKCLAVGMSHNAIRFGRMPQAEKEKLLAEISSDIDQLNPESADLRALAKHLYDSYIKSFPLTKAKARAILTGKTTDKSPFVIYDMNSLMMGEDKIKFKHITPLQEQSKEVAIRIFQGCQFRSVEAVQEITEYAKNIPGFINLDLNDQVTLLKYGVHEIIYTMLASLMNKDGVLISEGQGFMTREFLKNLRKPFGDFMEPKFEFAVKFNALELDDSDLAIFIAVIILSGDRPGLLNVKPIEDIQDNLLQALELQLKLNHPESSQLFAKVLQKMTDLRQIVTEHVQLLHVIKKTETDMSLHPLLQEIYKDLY
As to the kind of experiment: Agonist activity at Gal4-fused mouse PPAR-gamma ligand binding domain expressed in CHO-K1 cells assessed as receptor transactivation incubated for 24 to 48 hrs by luciferase reporter gene assay.

Assay [7] concerns the target T7, Peroxisome proliferator-activated receptor alpha (Mus musculus) (UniProt P23204).
T7 sequence (whole entry): T3 sequence (P23204 whole entry)
Nature of the assay: Agonist activity at Gal4-fused mouse PPAR-alpha ligand binding domain expressed in CHO-K1 cells assessed as receptor transactivation incubated for 24 to 48 hrs by luciferase reporter gene assay relative to control. The conditions noted are these: time lower 24.0 hrs, time upper […].

Usually EC50 stands for the concentration at which the effect is half-maximal. With `Cc1cc(CC(=O)O)cc(CN2CCN(c3nc4ccc(C(F)(F)F)cc4s3)[C@@H](C)C2)c1`, in the assay listed under Homo sapiens, the Ratio EC50 was 175. Further, the EC50 in assay [1] came to 0.01 µM; in assay [3] it was 3.9 µM; in assay [6] it was 2.7 µM. In addition, the Emax in assay [2] was 20.4%; in assay [4], 6.3%; in assay [5] it was 14%; in assay [7], 9%.

For the compound `Cc1cc(CC(=O)O)cc(CN2CCN(c3nc4ccc(C(F)(F)F)cc4s3)[C@H](C)C2)c1`, the Ratio EC50 in the assay listed under Homo sapiens is 258. Further, the EC50 in assay [1] was found to be 0.0062 µM; in assay [3] it was 3.7 µM; in assay [6], 1.8 µM. Besides, the Emax was determined as 20.8% in assay [2], 6.3% in assay [4], 13.5% in assay [5] and 1.7% in assay [7].
